The source of these data is ChEMBL document CHEMBL3774305, “Design, synthesis, and biological evaluation of arylpiperazine-benzylpiperidines with dual serotonin and norepinephrine reuptake inhibitory activities” (Bioorg Med Chem, 2016).

A word on the IC50: it is the concentration that gives 50% inhibition. Low readings indicate greater potency in that assay, high ones weaker potency in that assay.

SMILES strings stand for the structures.

Type in all cases: cell-based
Assay [1] deals with T1, Sodium-dependent serotonin transporter (Homo sapiens, UniProt P31645). Kind of assay: Inhibition of [3H]-5-HT reuptake in human SERT transfected into HEK293 cells at 1 uM by liquid scintillation counting method relative to venlafaxine HCl.
Target sequence in this assay (P31645 whole entry, looked up): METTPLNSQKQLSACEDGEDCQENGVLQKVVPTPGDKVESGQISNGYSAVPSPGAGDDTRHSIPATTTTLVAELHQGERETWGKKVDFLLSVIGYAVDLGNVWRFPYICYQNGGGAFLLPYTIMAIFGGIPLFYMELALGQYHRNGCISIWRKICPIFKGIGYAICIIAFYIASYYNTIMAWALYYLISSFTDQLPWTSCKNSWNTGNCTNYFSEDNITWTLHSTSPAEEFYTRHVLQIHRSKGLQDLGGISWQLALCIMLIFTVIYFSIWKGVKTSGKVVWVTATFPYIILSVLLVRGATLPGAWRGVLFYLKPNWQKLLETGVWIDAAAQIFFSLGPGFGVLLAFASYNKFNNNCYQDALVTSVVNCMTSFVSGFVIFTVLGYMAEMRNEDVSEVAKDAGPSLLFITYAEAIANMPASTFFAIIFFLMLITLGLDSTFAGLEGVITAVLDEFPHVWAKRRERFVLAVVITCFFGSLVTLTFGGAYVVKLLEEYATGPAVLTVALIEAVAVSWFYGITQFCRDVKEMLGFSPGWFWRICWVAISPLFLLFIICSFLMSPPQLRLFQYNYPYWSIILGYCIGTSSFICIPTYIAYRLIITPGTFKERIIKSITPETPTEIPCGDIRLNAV
The target of assay [2] is T2, Sodium-dependent noradrenaline transporter (Homo sapiens, UniProt P23975). Kind of assay: Inhibition of [3H]-NE reuptake in human NET transfected into HEK293 cells at 10 uM by liquid scintillation counting method relative to venlafaxine HCl.
Assay [3] deals with T1, Sodium-dependent serotonin transporter. Kind of assay: Inhibition of [3H]-5-HT reuptake in human SERT transfected into HEK293 cells by liquid scintillation counting method.
Target sequence in this assay (P31645 whole entry): as the sequence (P31645 whole entry, looked up) above
The target of assay [4] is T2, Sodium-dependent noradrenaline transporter. Description: Inhibition of [3H]-NE reuptake in human NET transfected into HEK293 cells by liquid scintillation counting method.
Assay [5] shares this target. Kind of assay: Inhibition of [3H]-NE reuptake in human NET transfected into HEK293 cells at 1 uM by liquid scintillation counting method relative to […].

T2 sequence (P23975 whole entry): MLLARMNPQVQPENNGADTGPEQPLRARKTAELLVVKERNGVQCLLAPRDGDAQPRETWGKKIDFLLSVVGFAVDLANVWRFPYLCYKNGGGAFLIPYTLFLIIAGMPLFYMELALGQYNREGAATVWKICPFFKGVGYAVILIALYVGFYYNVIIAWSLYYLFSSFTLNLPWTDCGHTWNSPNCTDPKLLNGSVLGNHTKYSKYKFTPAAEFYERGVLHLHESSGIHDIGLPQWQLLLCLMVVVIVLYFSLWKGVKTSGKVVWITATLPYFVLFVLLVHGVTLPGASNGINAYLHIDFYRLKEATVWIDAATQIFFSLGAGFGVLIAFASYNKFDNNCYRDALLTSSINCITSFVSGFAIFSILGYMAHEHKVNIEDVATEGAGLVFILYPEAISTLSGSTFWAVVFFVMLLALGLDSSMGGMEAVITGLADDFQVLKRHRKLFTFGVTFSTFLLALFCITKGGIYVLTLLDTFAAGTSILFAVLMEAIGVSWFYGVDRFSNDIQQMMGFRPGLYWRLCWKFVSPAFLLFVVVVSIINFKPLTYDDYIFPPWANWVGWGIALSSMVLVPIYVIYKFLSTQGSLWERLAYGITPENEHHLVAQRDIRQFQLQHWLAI

As to `Clc1cccc(N2CCN(CCN3CCC(Cc4ccccc4)CC3)CC2)c1`, the results for the fold change (FC) in assay [1] and in assay [2] were 0.41 and 1.29, respectively.
Turning to `Brc1ccc(N2CCN(CCN3CCC(Cc4ccccc4)CC3)CC2)cc1`, the figures for the fold change (FC) in assay [1] and in assay [2] were 1.01 and 1.31, respectively. Also, the IC50 in assay [3] is 4920 nM; in assay [4], 2100 nM.
Turning to `Clc1cccc(N2CCN(CCN3CCC(Cc4ccccc4)CC3)CC2)c1Cl`, the fold change (FC) was found to be 0.64 in assay [1] and 0.41 in assay [5].
Take `c1ccc(CC2CCN(CCN3CCN(c4ncccn4)CC3)CC2)cc1`: the fold change (FC) is 0.33 in assay [1] and -0.05 in assay [5].
`c1ccc(CC2CCN(CCCN3CCN(c4ncccn4)CC3)CC2)cc1`: the fold change (FC) in assay [1] was determined as 0.08; in assay [2], 1.01.
In the case of `Clc1ccc(N2CCN(CCCN3CCC(Cc4ccccc4)CC3)CC2)c(Cl)c1`, the fold change (FC) amounted to 1.06 in assay [1] and 1.45 in assay [2]. For the same compound, the IC50 in assay [3] was 1460 nM; in assay [4], 760 nM.
For `c1ccc(CC2CCN(CCN3CCN(c4ccccc4)CC3)CC2)cc1`, the fold change (FC) is 0.89 in assay [1] and 1 in assay [2].
Consider `c1ccc(CC2CCN(CCCN3CCN(c4ccccn4)CC3)CC2)cc1`, for which the results for the fold change (FC) in assay [1] and in assay [2] were 0.32 and 1.23, respectively.
With `Fc1ccc(N2CCN(CCCN3CCC(Cc4ccccc4)CC3)CC2)cc1`, the values for the fold change (FC) in assay [1] and in assay [2] were 0.27 and 1.4, respectively.
`Clc1ccc(N2CCN(CCN3CCC(Cc4ccccc4)CC3)CC2)cc1`: the fold change (FC) in assay [1] was found to be 0.56; in assay [2], 1.18.
Regarding `Clc1ccc(N2CCN(CCN3CCC(Cc4ccccc4)CC3)CC2)c(Cl)c1`, the results for the fold change (FC) in assay [1] and in assay [2] were 0.85 and 1.29, respectively. The 50% inhibitory concentration (IC50) in assay [3] is 4320 nM; in assay [4], 2500 nM.
`Cc1cccc(C)c1N1CCN(CCCN2CCC(Cc3ccccc3)CC2)CC1`: the fold change (FC) in assay [1] was found to be 2.83; in assay [2] it was 1.37. Also, the IC50 is 2000 nM in assay [3] and 1070 nM in assay [4].
As for `c1ccc(CC2CCN(CCN3CCN(c4ccccn4)CC3)CC2)cc1`, the results for the fold change (FC) in assay [1] and in assay [5] were 0.31 and 0.08, respectively.
The corresponding values for `COc1ccccc1N1CCN(CCN2CCC(Cc3ccccc3)CC2)CC1` are 0.27 and 0.2.
For the compound `Clc1ccc(N2CCN(CCCN3CCC(Cc4ccccc4)CC3)CC2)cc1`, the fold change (FC) is 0.44 in assay [1] and 1.46 in assay [2]. In addition, the concentration for half-maximal inhibition (IC50) in assay [3] was determined as 2030 nM; in assay [4] it was 530 nM.
In the case of `Brc1ccc(N2CCN(CCCN3CCC(Cc4ccccc4)CC3)CC2)cc1`, the fold change (FC) in assay [1] worked out at 0.87; in assay [2], 1.6. Further, the IC50 in assay [3] was determined as 2250 nM; in assay [4], 610 nM.
For `Fc1ccc(N2CCN(CCN3CCC(Cc4ccccc4)CC3)CC2)cc1`, the fold change (FC) came to 0.41 in assay [1] and 1.16 in assay [2].
Consider `c1ccc(CC2CCN(CCCN3CCN(c4ccccc4)CC3)CC2)cc1`, for which the fold change (FC) in assay [1] turned out to be 0.58; in assay [2], 1.51. Further, the half-maximal inhibitory concentration (IC50) in assay [3] stood at 1360 nM; in assay [4], 600 nM.
With `Clc1cccc(N2CCN(CCCN3CCC(Cc4ccccc4)CC3)CC2)c1`, the fold change (FC) in assay [1] came to 0.69; in assay [2], 1.41. The half-inhibitory concentration (IC50) in assay [3] came to 1180 nM; in assay [4] it was 380 nM.
Consider `Clc1cccc(N2CCN(CCCN3CCC(Cc4ccccc4)CC3)CC2)c1Cl`, for which the values for the fold change (FC) in assay [1] and in assay [2] were 0.79 and 1.63, respectively. The IC50 came to 2510 nM in assay [3] and 560 nM in assay [4].
Turning to `FC(F)(F)c1ccc(N2CCN(CCN3CCC(Cc4ccccc4)CC3)CC2)cc1`, the fold change (FC) in assay [1] came to 0.69; in assay [2], 1.26.
For `FC(F)(F)c1ccc(N2CCN(CCCN3CCC(Cc4ccccc4)CC3)CC2)cc1`, the fold change (FC) is 0.76 in assay [1] and 1.34 in assay [2]. The IC50 in assay [3] turned out to be 2610 nM; in assay [4] it was 1170 nM.
For the compound `COc1ccccc1N1CCN(CCCN2CCC(Cc3ccccc3)CC2)CC1`, the fold change (FC) stood at 2.4 in assay [1] and 1.36 in assay [2]. For the same compound, the IC50 in assay [3] turned out to be 1760 nM; in assay [4] it was 890 nM.
Consider `Cc1cccc(C)c1N1CCN(CCN2CCC(Cc3ccccc3)CC2)CC1`, for which the fold change (FC) in assay [1] amounted to 0.93; in assay [2], 1.26.
